{
  "source": "patent US6608103B2",
  "about": "“Inhibitor for neovasculation, cell multiplication, lumen formation and FGF” (Fuji Chemical Industry Co., Ltd., priority 2001, dated 2003)",
  "assay_type_in_all_cases": "cell-based, bovine",
  "key": {"BAEC [1]": {"tested_on": "BAEC", "assay": "Inhibitory action against FGF activity, MTT assay on BAEC with FGF 20 ng/ml", "set-up": "key to Cell Multiplication: ↑: Accelerated; /: Tendency to increase; No change; ↓: Inhibited; ↓↓: Strongly inhibited", "conditions": "for Absorbance: MTT, FGF 20 ng/ml + sample 10 μM", "method": "The fibroblast growth factor sample was prepared by dissolving a commercial FGF (Sigma Chemical Co.) in MEM (Sigma Chemical Co.)\n(§1) Each one microplate was taken out after 0, 24, 48 or 96 hours from placing the culture medium containing a sample. In the case of the microplate taken out after 96 hours, the culture medium was once changed after 48 hours. 3 mg/ml MTT solution PBS (−) was put in each well in an amount of 50 μl/well, and incubated for 3 hours in a CO2 incubator. After filling each well with phosphate buffered saline (PBS(−)), liquid in each well was evacuated, and isopropyl alcohol containing 0.04 mol/l HCL was put in each well in an amount of 200 μl/well. The microplates were allowed to stand overnight in a dark place, and then, absorbance at 595 nm and 655 nm (dual) was measured by a microplate reader.\nIn the case of Control group B, no sample was added."}, "BAEC [2]": {"tested_on": "BAEC", "assay": "Effects of tocotrienols on multiplication of BAEC, MTT assay", "conditions": "MTT, sample 10 μM", "method": "Normal bovine aortic endothelial cells (BAEC) were manufactured by Cell Systems Co., and purchased through Dainippon Seiyaku Co., Ltd.\nA cell suspension was prepared by adding the cells to MEM (Sigma Chemical Co.) containing 10 v/v (%) fetal bovine serum (FBS), 20 IU/ml penicillin and 20 IU/ml streptomycin (MEM+10% FBS) in a concentration of 1×10^5 cells/ml, and cultured in a 5% CO2 incubator at 37° C. by using a 60 mm dish coated with type I collagen with subculturing every 2 to 3 days.\nEach of the above samples was added to MEM containing 2% (v/v) FBS, 20 IU/ml penicillin and 20 IU/ml streptomycin (MEM+2% FBS), and subjected to testing.\nEffects of tocotrienols on the multiplication of BAEC were examined by using MTT assay.\nas §1\nIn the case of Control group A, no sample was added."}, "BAEC [3]": {"tested_on": "BAEC", "assay": "Inhibition against lumen formation induced by FGF", "method": "(§2) Eight parts by volume of “Vitrogen Collagen” (Collagen Co.), 1 part by volume of 0.1 N NaOH and 1 part by volume of ×10 MEM (GIBCO BRL) were placed in a tube, and mixed quickly in an ice bath. The culture solution was removed by suction, and 0.5 ml/well of the above mixture containing collagen was pipetted into each well. The microplate was placed in a CO2 incubator for about 30 minutes to gelatinize it. 1.5 ml of a medium (MEM | 2% FBS) containing a sample was added, and continued to incubate while changing the medium every second day.\n(§3) The variation of cells were observed by a microscope by taking a photograph, and lumen formation was evaluated by counting the number of branches of cells forming lumen.\nThe test was carried out similar to Examples 12-14, wherein FGF was added together with each tocotrienol. In the case of Control group E, no sample was added. […]"}, "BAEC [4]": {"tested_on": "BAEC", "assay": "Neovasculation / lumen formation of BAEC between two layers of type I collagen gel", "method": "BAEC was cultured between two layers of type I collagen gel, and a lumen-like netting structure formed therebetween was evaluated.\nas §2, §3\nThe inhibition test against lumen formation was carried out in the same manner as Example 15, except that α-tocopherol was substituted for DL-α-tocotrienol."}, "BAEC [5]": {"tested_on": "BAEC", "assay": "Cell multiplication of BAEC, survival rate of cells using WST-1", "conditions": "for Survival Rate of Cells (% of control): 24 hours, WST-1", "method": "Influence of tocotrienols on cell multiplication of BAEC was examined in various concentrations. The cell multiplication was evaluated by determining the survival rate of cells using WST-1, which makes it possible to conduct high sensitivity measurement, instead of conventional MTT.\nAs a blank, the culture medium alone was incubated without adding cells. […] The microplate was taken out after 24 hours from placing the culture medium containing a sample. 10 μl/well of WST-1 solution was added to each well, and incubated in a CO2 incubator. After 3 hours, absorbance at 450 nm and 655 nm (dual) of each well was measured by a microplate reader.\nThe samples employed were DL-α-tocotrienol, DL-γ-tocotrienol and DL-δ-tocotrienol. In the case of Control group I, no sample was added.\nThe survival rate of cells was determined by the following formula:\nSurvival Rate of Cells=(S−B)/(C−B)×100(%)\nThe results of Table 10 were made in a graph shown in FIG. 1, and median growth inhibition concentration (IC50) was determined from the graph. In the figure, the numbers on the ordinate indicate the survival rate of cells (% of control), and the numbers on the abscissa indicate concentration (μM). ● is DL-α-tocotrienol, ▪ is DL-β-tocotrienol, Δ is DL-γ-tocotrienol, and X is DL-δ-tocotrienol, respectively."}, "[6]": {"conditions": "summary, FGF (20 ng/ml) + sample (10 μM)"}},
  "data": [
    {"smiles": "CC(C)=CCC/C(C)=C/CC/C(C)=C/CC[C@]1(C)CCc2c(C)c(O)c(C)c(C)c2O1", "note": "(racemic) [DL-α-Tocotrienol, α-tocotrienol]", "values": [
      {"measurement": "Absorbance", "setting": "BAEC [1]; 0 hr", "result": "0.044 ± 0.002"},
      {"measurement": "Absorbance", "setting": "BAEC [1]; 24 hrs", "result": "0.096 ± 0.004"},
      {"measurement": "Absorbance", "setting": "BAEC [1]; 48 hrs", "result": "0.290 ± 0.010"},
      {"measurement": "Absorbance", "setting": "BAEC [1]; 96 hrs", "result": "0.328 ± 0.018"},
      {"measurement": "Cell Multiplication", "setting": "BAEC [1]; [6]", "result": "↑"},
      {"measurement": "Absorbance", "setting": "BAEC [2]; 0 hr", "result": "0.090 ± 0.003"},
      {"measurement": "Absorbance", "setting": "BAEC [2]; 24 hrs", "result": "0.141 ± 0.008"},
      {"measurement": "Absorbance", "setting": "BAEC [2]; 48 hrs", "result": "0.271 ± 0.010"},
      {"measurement": "Absorbance", "setting": "BAEC [2]; 96 hrs", "result": "0.382 ± 0.014"},
      {"measurement": "inhibition of lumen formation induced by FGF", "setting": "BAEC [3]; 10 μM + FGF 20 ng/ml", "result": "inhibited the lumen formation induced by FGF"},
      {"measurement": "Number of Cells Forming Lumen/cm^2", "setting": "BAEC [3]; sample 10 μM + FGF 20 ng/ml", "result": "25.25 ± 1.55 /cm^2"},
      {"measurement": "Lumen Formation", "setting": "BAEC [3]; [6]", "result": "→"},
      {"measurement": "inhibition of lumen formation", "setting": "BAEC [4]; 10 μM", "result": "equivalent to the control group"},
      {"measurement": "inhibition of lumen formation", "setting": "BAEC [4]; 50 μM", "result": "completely inhibited formation"},
      {"measurement": "Number of Cells Forming Lumen/cm^2", "setting": "BAEC [4]; Table 4, 10 μM", "result": "39.25 ± 1.84 /cm^2"},
      {"measurement": "Number of Cells Forming Lumen/cm^2", "setting": "BAEC [4]; Table 4, 30 μM", "result": "31.75 ± 1.25 /cm^2"},
      {"measurement": "Number of Cells Forming Lumen/cm^2", "setting": "BAEC [4]; Table 4, 50 μM", "result": "0.00 ± 0.00 /cm^2"},
      {"measurement": "Number of Cells Forming Lumen/cm^2", "setting": "BAEC [4]; Table 4, 100 μM", "result": "39.25 ± 2.17 /cm^2"},
      {"measurement": "Survival Rate of Cells (% of control)", "setting": "BAEC [5]; 25 μM", "result": "111.0 ± 6.8 % of control"},
      {"measurement": "Survival Rate of Cells (% of control)", "setting": "BAEC [5]; 30 μM", "result": "115.8 ± 9.2 % of control"},
      {"measurement": "Survival Rate of Cells (% of control)", "setting": "BAEC [5]; 35 μM", "result": "67.3 ± 11.6 % of control"},
      {"measurement": "Survival Rate of Cells (% of control)", "setting": "BAEC [5]; 40 μM", "result": "39.1 ± 12.7 % of control"},
      {"measurement": "Survival Rate of Cells (% of control)", "setting": "BAEC [5]; 45 μM", "result": "6.9 ± 5.9 % of control"},
      {"measurement": "IC50", "setting": "BAEC [5]; determined from the graph of FIG. 1 (abscissa μM), read-out: median growth inhibition concentration (IC50)", "result": 38, "unit": "µM"}
    ]}
  ]
}
